Measurements reported in PubChem BioAssay (NCI).
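Compound exposure: 48 hours, 5 concentrations, 96-well plates. The concentration for full growth arrest is given as TGI.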

Experiments:
Experiment in all cases: DTP human tumour cell line panel, 48 h
OVCAR-3 ovarian = test system: OVCAR-3 ovarian
PC-3 prostate = test system: PC-3 prostate
SF-295 CNS = test system: SF-295 CNS
U251 CNS = test system: U251 CNS
HL-60(TB) leukemia = test system: HL-60(TB) leukemia
RXF 393 renal = test system: RXF 393 renal
SK-MEL-5 melanoma = test system: SK-MEL-5 melanoma
UACC-62 melanoma = test system: UACC-62 melanoma
NCI-H226 lung = test system: NCI-H226 lung
A498 renal = test system: A498 renal
MALME-3M melanoma = test system: MALME-3M melanoma
MDA-MB-435 = test system: MDA-MB-435
MDA-MB-231 breast = test system: MDA-MB-231 breast
ACHN renal = test system: ACHN renal
HT29 colon = test system: HT29 colon
SF-268 CNS = test system: SF-268 CNS
IGROV1 ovarian = test system: IGROV1 ovarian
K-562 leukemia = test system: K-562 leukemia
HCT-116 colon = test system: HCT-116 colon
KM12 colon = test system: KM12 colon
TK-10 renal = test system: TK-10 renal
HOP-62 NSCLC = test system: HOP-62 NSCLC
EKVX NSCLC = test system: EKVX NSCLC
CCRF-CEM leukemia = test system: CCRF-CEM leukemia
A549 NSCLC = test system: A549 NSCLC
SNB-19 CNS = test system: SNB-19 CNS
NCI-H460 lung = test system: NCI-H460 lung
M14 melanoma = test system: M14 melanoma
UACC-257 melanoma = test system: UACC-257 melanoma
SR leukemia = test system: SR leukemia
T-47D breast = test system: T-47D breast
OVCAR-5 ovarian = test system: OVCAR-5 ovarian
SN12C renal = test system: SN12C renal
SW-620 colon = test system: SW-620 colon
MDA-N = test system: MDA-N
BT-549 breast = test system: BT-549 breast
HCT-15 colon = test system: HCT-15 colon
RPMI-8226 leukemia = test system: RPMI-8226 leukemia
HS 578T breast = test system: HS 578T breast
NCI-H23 lung = test system: NCI-H23 lung
SK-MEL-28 melanoma = test system: SK-MEL-28 melanoma
HOP-92 NSCLC = test system: HOP-92 NSCLC
LOX IMVI melanoma = test system: LOX IMVI melanoma
NCI/ADR-RES ovarian = test system: NCI/ADR-RES ovarian
UO-31 renal = test system: UO-31 renal
786-0 renal = test system: 786-0 renal
OVCAR-4 ovarian = test system: OVCAR-4 ovarian
CAKI-1 renal = test system: CAKI-1 renal
NCI-H522 lung = test system: NCI-H522 lung
MOLT-4 leukemia = test system: MOLT-4 leukemia
OVCAR-8 ovarian = test system: OVCAR-8 ovarian
SK-MEL-2 melanoma = test system: SK-MEL-2 melanoma
DU-145 prostate = test system: DU-145 prostate
MCF7 breast = test system: MCF7 breast
SF-539 CNS = test system: SF-539 CNS
SK-OV-3 ovarian = test system: SK-OV-3 ovarian
SNB-75 CNS = test system: SNB-75 CNS
COLO 205 colon = test system: COLO 205 colon
HCC-2998 colon = test system: HCC-2998 colon

NC(Cc1ccccc1)P(=O)(O)O (stereo unspecified)
TGI (OVCAR-3 ovarian): > 100 µM | TGI (PC-3 prostate): > 100 µM | TGI (SF-295 CNS): > 100 µM | TGI (U251 CNS): > 100 µM | TGI (HL-60(TB) leukemia): > 100 µM | TGI (RXF 393 renal): > 100 µM | TGI (SK-MEL-5 melanoma): > 100 µM | TGI (UACC-62 melanoma): > 100 µM | TGI (NCI-H226 lung): > 100 µM | TGI (A498 renal): > 100 µM | TGI (MALME-3M melanoma): > 100 µM | TGI (MDA-MB-435): > 100 µM | TGI (MDA-MB-231 breast): > 100 µM | TGI (ACHN renal): > 100 µM | TGI (HT29 colon): > 100 µM | TGI (SF-268 CNS): > 100 µM | TGI (IGROV1 ovarian): > 100 µM | TGI (K-562 leukemia): > 100 µM | TGI (HCT-116 colon): > 100 µM | TGI (KM12 colon): > 100 µM | TGI (TK-10 renal): > 100 µM | TGI (HOP-62 NSCLC): > 100 µM | TGI (EKVX NSCLC): > 100 µM | TGI (CCRF-CEM leukemia): > 100 µM | TGI (A549 NSCLC): > 100 µM | TGI (SNB-19 CNS): > 100 µM | TGI (NCI-H460 lung): > 100 µM | TGI (M14 melanoma): > 100 µM | TGI (UACC-257 melanoma): > 100 µM | TGI (SR leukemia): > 100 µM | TGI (T-47D breast): > 100 µM | TGI (OVCAR-5 ovarian): > 100 µM | TGI (SN12C renal): > 100 µM | TGI (SW-620 colon): > 100 µM | TGI (MDA-N): > 100 µM | TGI (BT-549 breast): > 100 µM | TGI (HCT-15 colon): > 100 µM | TGI (RPMI-8226 leukemia): > 100 µM | TGI (HS 578T breast): > 100 µM | TGI (NCI-H23 lung): > 100 µM | TGI (SK-MEL-28 melanoma): > 100 µM | TGI (HOP-92 NSCLC): > 100 µM | TGI (LOX IMVI melanoma): > 100 µM | TGI (NCI/ADR-RES ovarian): > 100 µM | TGI (UO-31 renal): > 100 µM | TGI (786-0 renal): > 100 µM | TGI (OVCAR-4 ovarian): > 100 µM | TGI (CAKI-1 renal): > 100 µM | TGI (NCI-H522 lung): > 100 µM | TGI (MOLT-4 leukemia): > 100 µM | TGI (OVCAR-8 ovarian): > 100 µM | TGI (SK-MEL-2 melanoma): > 100 µM

COc1ccc(C2SC(N)=Nc3c2c(C)nn3C(=O)Cc2ccccc2)cc1 (stereo unspecified)
TGI (PC-3 prostate): > 100 µM | TGI (SF-295 CNS): > 100 µM | TGI (HL-60(TB) leukemia): > 100 µM | TGI (SK-MEL-5 melanoma): > 100 µM | TGI (UACC-62 melanoma): > 100 µM | TGI (NCI-H226 lung): > 100 µM | TGI (A498 renal): > 100 µM | TGI (MALME-3M melanoma): > 100 µM | TGI (MDA-MB-435): > 100 µM | TGI (MDA-MB-231 breast): > 100 µM | TGI (DU-145 prostate): > 100 µM | TGI (ACHN renal): > 100 µM | TGI (HT29 colon): > 100 µM | TGI (SF-268 CNS): > 100 µM | TGI (IGROV1 ovarian): > 100 µM | TGI (MCF7 breast): > 100 µM | TGI (K-562 leukemia): > 100 µM | TGI (HCT-116 colon): > 100 µM | TGI (KM12 colon): > 100 µM | TGI (TK-10 renal): > 100 µM | TGI (SF-539 CNS): > 100 µM | TGI (HOP-62 NSCLC): > 100 µM | TGI (EKVX NSCLC): > 100 µM | TGI (CCRF-CEM leukemia): > 100 µM | TGI (A549 NSCLC): > 100 µM | TGI (SNB-19 CNS): > 100 µM | TGI (NCI-H460 lung): > 100 µM | TGI (SK-OV-3 ovarian): > 100 µM | TGI (M14 melanoma): > 100 µM | TGI (SNB-75 CNS): > 100 µM | TGI (UACC-257 melanoma): > 100 µM | TGI (SR leukemia): > 100 µM | TGI (COLO 205 colon): > 100 µM | TGI (HCC-2998 colon): > 100 µM | TGI (T-47D breast): > 100 µM | TGI (SN12C renal): > 100 µM | TGI (SW-620 colon): > 100 µM | TGI (MDA-N): > 100 µM | TGI (BT-549 breast): > 100 µM | TGI (HCT-15 colon): > 100 µM | TGI (RPMI-8226 leukemia): > 100 µM | TGI (HS 578T breast): > 100 µM | TGI (NCI-H23 lung): > 100 µM | TGI (SK-MEL-28 melanoma): > 100 µM | TGI (LOX IMVI melanoma): > 100 µM | TGI (UO-31 renal): > 100 µM | TGI (786-0 renal): > 100 µM | TGI (CAKI-1 renal): > 100 µM | TGI (NCI-H522 lung): > 100 µM | TGI (MOLT-4 leukemia): > 100 µM | TGI (OVCAR-8 ovarian): > 100 µM

CCn1c2ccccc2c2cc(N=Nc3ccc(C#N)cc3)ccc21
TGI (OVCAR-3 ovarian): > 100 µM | TGI (PC-3 prostate): > 100 µM | TGI (SF-295 CNS): > 100 µM | TGI (U251 CNS): > 100 µM | TGI (HL-60(TB) leukemia): > 100 µM | TGI (SK-MEL-5 melanoma): > 100 µM | TGI (UACC-62 melanoma): > 100 µM | TGI (NCI-H226 lung): > 100 µM | TGI (A498 renal): 70 µM | TGI (MALME-3M melanoma): 52.7 µM | TGI (MDA-MB-435): > 100 µM | TGI (MDA-MB-231 breast): 59 µM | TGI (DU-145 prostate): > 100 µM | TGI (ACHN renal): > 100 µM | TGI (HT29 colon): > 100 µM | TGI (SF-268 CNS): > 100 µM | TGI (IGROV1 ovarian): > 100 µM | TGI (MCF7 breast): > 100 µM | TGI (HCT-116 colon): > 100 µM | TGI (KM12 colon): > 100 µM | TGI (TK-10 renal): > 100 µM | TGI (SF-539 CNS): > 100 µM | TGI (HOP-62 NSCLC): > 100 µM | TGI (EKVX NSCLC): > 100 µM | TGI (CCRF-CEM leukemia): > 100 µM | TGI (A549 NSCLC): > 100 µM | TGI (SNB-19 CNS): 71.6 µM | TGI (NCI-H460 lung): > 100 µM | TGI (SK-OV-3 ovarian): > 100 µM | TGI (M14 melanoma): > 100 µM | TGI (SNB-75 CNS): 87.6 µM | TGI (UACC-257 melanoma): > 100 µM | TGI (COLO 205 colon): > 100 µM | TGI (T-47D breast): > 100 µM | TGI (OVCAR-5 ovarian): > 100 µM | TGI (SN12C renal): > 100 µM | TGI (SW-620 colon): > 100 µM | TGI (MDA-N): > 100 µM | TGI (BT-549 breast): 57.1 µM | TGI (HCT-15 colon): > 100 µM | TGI (HS 578T breast): > 100 µM | TGI (NCI-H23 lung): 68.6 µM | TGI (SK-MEL-28 melanoma): > 100 µM | TGI (HOP-92 NSCLC): 79.7 µM | TGI (LOX IMVI melanoma): 61.8 µM | TGI (UO-31 renal): > 100 µM | TGI (786-0 renal): > 100 µM | TGI (OVCAR-4 ovarian): > 100 µM | TGI (CAKI-1 renal): > 100 µM | TGI (NCI-H522 lung): > 100 µM | TGI (MOLT-4 leukemia): > 100 µM | TGI (OVCAR-8 ovarian): > 100 µM | TGI (SK-MEL-2 melanoma): > 100 µM
